Assay results published in paper PMC8842743 (Journal of Alzheimer's Disease Reports, 2022).

Test system: healthy subjects
Assay: Clinical liver safety laboratory data over time
Format: in vivo, human
Settings: mean (SD)

In the case of `COc1cnc(C(=O)Nc2ccc(F)c([C@]34CN(c5ncc(F)cn5)C[C@H]3CSC(N)=N4)c2)cn1` [LY3202626], the Albumin (6 mg daily, Day 8) is reported as 46.3 (1.6) g/L, the GGT (6 mg daily, Day 8) is reported as 21.7 (10.8) U/L and the “Total Bilirubin” value (6 mg daily, Day 8) is reported as 8.1 (2.8) umol/L. The ALP (6 mg daily, Day 10) was 62.9 (15.4) U/L, the ALT (6 mg daily, Day 10) was 17.9 (2.3) U/L and the AST (6 mg daily, Day 10) was 19.6 (6.0) U/L. For the same molecule, the Albumin (6 mg daily, Day 10) was 46.0 (1.7) g/L, the GGT (6 mg daily, Day 10) was 20.6 (8.7) U/L and the “Total Bilirubin” value (6 mg daily, Day 10) was 8.2 (2.7) umol/L. For the same molecule, the ALP (6 mg daily, Day 12) was 63.6 (17.2) U/L, the ALT (6 mg daily, Day 12) was 16.9 (2.5) U/L and the AST (6 mg daily, Day 12) was 17.2 (3.8) U/L. The Albumin (6 mg daily, Day 12) was 46.7 (1.6) g/L, the GGT (6 mg daily, Day 12) was 20.3 (8.2) U/L and the “Total Bilirubin” value (6 mg daily, Day 12) was 7.4 (2.4) umol/L. For the same molecule, the ALP (6 mg daily, Day 14) was 62.2 (16.0) U/L, the ALT (6 mg daily, Day 14) was 15.2 (2.5) U/L and the AST (6 mg daily, Day 14) was 15.3 (4.3) U/L. For the same molecule, the Albumin (6 mg daily, Day 14) was 44.4 (1.8) g/L, the GGT (6 mg daily, Day 14) was 19.3 (10.3) U/L and the “Total Bilirubin” value (6 mg daily, Day 14) was 8.1 (5.0) umol/L. The ALP (6 mg daily, Day 15) was 58.9 (14.3) U/L, the ALT (6 mg daily, Day 15) was 16.1 (2.9) U/L and the AST (6 mg daily, Day 15) was 15.9 (3.9) U/L. The Albumin (6 mg daily, Day 15) was 43.8 (2.1) g/L, the GGT (6 mg daily, Day 15) was 18.6 (8.6) U/L and the “Total Bilirubin” value (6 mg daily, Day 15) was 7.3 (3.0) umol/L. The ALP (6 mg daily, Day 17) was 65.0 (18.7) U/L, the ALT (6 mg daily, Day 17) was 19.8 (4.3) U/L and the AST (6 mg daily, Day 17) was 18.9 (3.5) U/L. For the same molecule, the Albumin (6 mg daily, Day 17) was 46.0 (1.7) g/L, the GGT (6 mg daily, Day 17) was 20.9 (9.7) U/L and the “Total Bilirubin” value (6 mg daily, Day 17) was 6.3 (4.7) umol/L. For the same molecule, the ALP (26 mg daily, Day 1 predose) was 56.9 (12.0) U/L, the ALT (26 mg daily, Day 1 predose) was 16.9 (6.3) U/L and the AST (26 mg daily, Day 1 predose) was 15.2 (2.5) U/L. The Albumin (26 mg daily, Day 1 predose) was 46.3 (1.9) g/L, the GGT (26 mg daily, Day 1 predose) was 18.3 (8.2) U/L and the “Total Bilirubin” value (26 mg daily, Day 1 predose) was 9.0 (2.6) umol/L. The ALP (26 mg daily, Day 2) was 57.9 (11.3) U/L, the ALT (26 mg daily, Day 2) was 15.6 (6.2) U/L and the AST (26 mg daily, Day 2) was 14.6 (2.7) U/L. The Albumin (26 mg daily, Day 2) was 46.2 (1.9) g/L, the GGT (26 mg daily, Day 2) was 18.9 (8.5) U/L and the “Total Bilirubin” value (26 mg daily, Day 2) was 8.6 (2.6) umol/L. The ALP (26 mg daily, Day 3) was 57.2 (11.1) U/L, the ALT (26 mg daily, Day 3) was 16.2 (6.4) U/L and the AST (26 mg daily, Day 3) was 14.9 (3.6) U/L. For the same molecule, the Albumin (26 mg daily, Day 3) was 45.0 (2.7) g/L, the GGT (26 mg daily, Day 3) was 18.6 (8.8) U/L and the “Total Bilirubin” value (26 mg daily, Day 3) was 7.1 (2.3) umol/L. For the same molecule, the ALP (26 mg daily, Day 4) was 58.6 (10.8) U/L, the ALT (26 mg daily, Day 4) was 16.9 (5.6) U/L and the AST (26 mg daily, Day 4) was 16.8 (3.8) U/L. For the same molecule, the Albumin (26 mg daily, Day 4) was 46.0 (1.9) g/L, the GGT (26 mg daily, Day 4) was 19.0 (9.6) U/L and the “Total Bilirubin” value (26 mg daily, Day 4) was 6.7 (1.4) umol/L. For the same molecule, the ALP (26 mg daily, Day 6) was 57.6 (12.0) U/L, the ALT (26 mg daily, Day 6) was 16.2 (5.2) U/L and the AST (26 mg daily, Day 6) was 17.8 (3.2) U/L. The Albumin (26 mg daily, Day 6) was 44.9 (2.0) g/L, the GGT (26 mg daily, Day 6) was 18.2 (8.5) U/L and the “Total Bilirubin” value (26 mg daily, Day 6) was 8.6 (3.0) umol/L. The ALP (26 mg daily, Day 8) was 59.3 (10.8) U/L, the ALT (26 mg daily, Day 8) was 16.8 (4.5) U/L and the AST (26 mg daily, Day 8) was 16.4 (3.0) U/L. For the same molecule, the Albumin (26 mg daily, Day 8) was 46.3 (2.9) g/L, the GGT (26 mg daily, Day 8) was 18.6 (7.2) U/L and the “Total Bilirubin” value (26 mg daily, Day 8) was 8.6 (4.6) umol/L. The ALP (26 mg daily, Day 10) was 60.7 (11.4) U/L, the ALT (26 mg daily, Day 10) was 15.8 (5.5) U/L and the AST (26 mg daily, Day 10) was 16.1 (2.7) U/L. The Albumin (26 mg daily, Day 10) was 45.8 (2.0) g/L, the GGT (26 mg daily, Day 10) was 17.9 (7.4) U/L and the “Total Bilirubin” value (26 mg daily, Day 10) was 8.7 (4.2) umol/L. For the same molecule, the ALP (26 mg daily, Day 12) was 60.1 (9.6) U/L, the ALT (26 mg daily, Day 12) was 16.9 (5.6) U/L and the AST (26 mg daily, Day 12) was 18.3 (3.5) U/L. For the same molecule, the Albumin (26 mg daily, Day 12) was 44.9 (2.3) g/L, the GGT (26 mg daily, Day 12) was 17.7 (7.4) U/L and the “Total Bilirubin” value (26 mg daily, Day 12) was 8.3 (4.5) umol/L. The ALP (26 mg daily, Day 14) was 59.3 (10.2) U/L, the ALT (26 mg daily, Day 14) was 17.1 (7.4) U/L and the AST (26 mg daily, Day 14) was 16.3 (4.0) U/L. For the same molecule, the Albumin (26 mg daily, Day 14) was 43.7 (2.2) g/L, the GGT (26 mg daily, Day 14) was 18.1 (8.8) U/L and the “Total Bilirubin” value (26 mg daily, Day 14) was 5.8 (2.4) umol/L. For the same molecule, the ALP (26 mg daily, Day 15) was 58.6 (9.6) U/L, the ALT (26 mg daily, Day 15) was 16.8 (7.8) U/L and the AST (26 mg daily, Day 15) was 16.2 (4.6) U/L. For the same molecule, the Albumin (26 mg daily, Day 15) was 44.0 (2.6) g/L, the GGT (26 mg daily, Day 15) was 17.6 (8.8) U/L and the “Total Bilirubin” value (26 mg daily, Day 15) was 7.2 (1.9) umol/L. For the same molecule, the ALP (26 mg daily, Day 17) was 65.7 (11.5) U/L, the ALT (26 mg daily, Day 17) was 20.0 (9.8) U/L and the AST (26 mg daily, Day 17) was 18.6 (6.2) U/L. The Albumin (26 mg daily, Day 17) was 45.9 (1.3) g/L, the GGT (26 mg daily, Day 17) was 20.7 (11.1) U/L and the “Total Bilirubin” value (26 mg daily, Day 17) was 7.3 (4.6) umol/L.
